Data published in publication PMC7296983 (Journal of medicinal chemistry, 2019).
Each block holds one molecule with its values, some of them ahead of it.

Legend:
NNMT [1] = biological target: T1, NNMT (Homo sapiens, UniProt P40261); experiment: SAH hydrolase; assay type: biochemical; details: for activity compared to respective parent compound 1g, 1h and 3a: aspartic replaced by glutamic amino acid portion
T1 sequence (P40261 1-264): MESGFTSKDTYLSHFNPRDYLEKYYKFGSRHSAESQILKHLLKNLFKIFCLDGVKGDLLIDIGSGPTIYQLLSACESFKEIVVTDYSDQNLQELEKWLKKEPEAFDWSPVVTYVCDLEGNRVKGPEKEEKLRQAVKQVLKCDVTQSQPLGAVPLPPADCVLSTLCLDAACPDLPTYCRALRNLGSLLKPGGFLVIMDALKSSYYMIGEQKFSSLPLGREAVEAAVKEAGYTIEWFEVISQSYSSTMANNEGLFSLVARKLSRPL

NNMT [2] = details: cited from earlier work
NNMT [3] = details: cited from earlier work; remark: listed apart in the source
TbPRMT7 = TbPRMT7 (Trypanosoma brucei brucei, UniProt Q582G4); experiment: biochemical
Sequence of TbPRMT7 (Q582G4 whole entry): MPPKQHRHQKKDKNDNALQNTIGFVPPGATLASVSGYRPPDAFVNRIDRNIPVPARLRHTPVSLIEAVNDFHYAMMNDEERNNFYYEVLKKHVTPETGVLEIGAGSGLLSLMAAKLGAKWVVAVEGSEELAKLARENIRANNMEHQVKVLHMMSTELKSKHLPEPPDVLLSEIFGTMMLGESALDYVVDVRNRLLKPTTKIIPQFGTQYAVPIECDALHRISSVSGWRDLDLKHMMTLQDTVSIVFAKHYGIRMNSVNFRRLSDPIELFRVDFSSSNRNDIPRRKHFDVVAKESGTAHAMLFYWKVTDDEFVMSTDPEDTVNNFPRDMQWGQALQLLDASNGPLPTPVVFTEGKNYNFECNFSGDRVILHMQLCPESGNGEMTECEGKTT

NTMT1 = biological target: T2, NTMT1 (Homo sapiens, UniProt Q9BV86); experiment: Selectivity assay, SAHH-coupled fluorescence; assay type: biochemical; details: read-out: Enzyme activity (%)
T2 sequence (Q9BV86 1-223): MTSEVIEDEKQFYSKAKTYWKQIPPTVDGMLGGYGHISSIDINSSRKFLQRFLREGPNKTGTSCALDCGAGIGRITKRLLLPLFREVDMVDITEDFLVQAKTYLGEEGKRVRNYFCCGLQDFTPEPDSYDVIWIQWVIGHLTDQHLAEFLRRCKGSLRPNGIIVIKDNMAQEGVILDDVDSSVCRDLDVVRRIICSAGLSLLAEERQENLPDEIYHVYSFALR

PRMT1 = PRMT1 (Homo sapiens, UniProt Q99873); experiment: Selectivity assay, SAHH-coupled fluorescence; assay type: biochemical
Sequence of PRMT1 (Q99873 whole entry, species assumed): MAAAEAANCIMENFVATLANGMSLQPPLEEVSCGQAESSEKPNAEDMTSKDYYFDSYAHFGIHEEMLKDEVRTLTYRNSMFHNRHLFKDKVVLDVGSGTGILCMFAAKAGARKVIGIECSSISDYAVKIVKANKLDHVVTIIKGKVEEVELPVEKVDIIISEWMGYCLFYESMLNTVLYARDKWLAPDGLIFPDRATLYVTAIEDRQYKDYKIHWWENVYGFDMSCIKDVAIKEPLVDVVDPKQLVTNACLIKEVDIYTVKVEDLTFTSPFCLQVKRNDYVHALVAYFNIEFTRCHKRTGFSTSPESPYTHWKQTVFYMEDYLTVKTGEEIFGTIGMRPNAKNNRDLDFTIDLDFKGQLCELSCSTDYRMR

HCT116 = assay type: in vitro ADME; details: human, 100 μM
NNMT [4] = details: cited from earlier work; remark: listed apart in the source
SAH hydrolase = substrate: C[S+](CC[C@H](N)C(=O)[O-])C[C@H]1O[C@@H](n2cnc3c(N)ncnc32)[C@H](O)[C@@H]1O; experiment: SAH hydrolase; assay type: biochemical, human; details: other: substrate and cofactor, Figure S1; pH 7.5; 37.0 °C
[5] = substrate: NC(=O)c1cccnc1; experiment: purified protein, by the assay type; details: other: substrate and cofactor, Figure S1; pH 7.5; 37.0 °C

- decrease of inhibitory activity compared with 1a (NNMT [1]): marginally affected the inhibition
Molecule: Cc1ccc(CCCN(CC[C@H](N)C(=O)O)C[C@H]2O[C@@H](n3cnc4c(N)ncnc43)[C@H](O)[C@@H]2O)cc1C(N)=O [Compound 1c, (S)-2-amino-4-((((2R,3S,4R,5R)-5-(6-amino-9H-purin-9-yl)-3,4dihydroxytetrahydrofuran-2-yl)methyl)(3-(3-carbamoyl-4methylphenyl)propyl)amino)butanoic acid]

Molecule: c1ccc2cnccc2c1 [isoquinoline]
- Km relative to nicotinamide (NNMT [2]): ~3 fold

Molecule: NC(=O)c1cccc(CCN(CCC[C@H](N)C(=O)O)C[C@H]2O[C@@H](n3cnc4c(N)ncnc43)[C@H](O)[C@@H]2O)c1 [MS2734]
- fold higher inhibitory activity than MS 2756 (NNMT [3]; aspartic amino acid replaced with glutamic acid in the SAM portion): over 10 fold
- activity of previously reported bisubstrate analogs (NNMT [3]): moderate activities at μM range

Molecule: NC(=O)c1cccc(C#CCN(CC[C@H](N)C(=O)O)C[C@H]2O[C@@H](n3cnc4c(N)ncnc43)[C@H](O)[C@@H]2O)c1 [Compound 2a, (S)-2-amino-4-((((2R,3S,4R,5R)-5-(6-amino-9H-purin-9-yl)-3,4-dihydroxytetrahydrofuran-2-yl)methyl)(3-(3-carbamoylphenyl)prop-2-yn-1-yl)amino)butanoic acid]
- IC50 (TbPRMT7): > 33 µM
- remaining activity at 3.7 µM (NTMT1): 64%
- IC50 (PRMT1): > 100 µM

Molecule: Cc1ccncc1C(N)=O [4-methylnicotinamide]
- Km relative to nicotinamide (NNMT [2]): comparable to nicotinamide

Molecule: NC(=O)c1cccc(CCCCN(CCC[C@H](N)C(=O)O)C[C@H]2O[C@@H](n3cnc4c(N)ncnc43)[C@H](O)[C@@H]2O)c1 [Compound 3b, (S)-2-amino-5-((((2R,3S,4R,5R)-5-(6-amino-9H-purin-9-yl)-3,4-dihydroxytetrahydrofuran-2-yl)methyl)(4-(3-carbamoylphenyl)butyl)amino)pentanoic acid]
- activity compared to respective parent compound 1g, 1h and 3a (NNMT [1]): either comparable or 3-fold decreased activities

Molecule: Nc1ncnc2c1ncn2[C@@H]1O[C@H](CN(CCCc2ccc3ccccc3c2)CCC[C@H](N)C(=O)O)[C@@H](O)[C@H]1O [Compound 1f, (S)-2-amino-5-((((2R,3S,4R,5R)-5-(6-amino-9H-purin-9-yl)-3,4-dihydroxytetrahydrofuran-2-yl)methyl)(3-(naphthalen-2-yl)propyl)amino)pentanoic acid]
- activity compared to respective parent compound 1g, 1h and 3a (NNMT [1]): either comparable or 3-fold decreased activities

Molecule: Nc1ncnc2c1ncn2[C@@H]1O[C@H](CN(CCCc2cccc3ccccc23)CCC[C@H](N)C(=O)O)[C@@H](O)[C@H]1O [Compound 1e, (S)-2-amino-5-((((2R,3S,4R,5R)-5-(6-amino-9H-purin-9-yl)-3,4-dihydroxytetrahydrofuran-2-yl)methyl)(3-(naphthalen-1-yl)propyl)amino)pentanoic acid]
- activity compared to respective parent compound 1g, 1h and 3a (NNMT [1]): either comparable or 3-fold decreased activities

Molecule: NC(=O)c1cccc(CCCN(CC[C@H](N)C(=O)O)C[C@H]2O[C@@H](n3cnc4c(N)ncnc43)[C@H](O)[C@@H]2O)c1 [Compound 1a]
- cell permeability (MS detection of cellular levels) (HCT116): barely exhibited enhanced cell permeability

Molecule: c1ccc2ncccc2c1 [Quinoline]
- Km relative to nicotinamide (NNMT [2]): comparable to nicotinamide

Molecule: NC(=O)c1cccc(C#CCN(CC[C@H](N)C(=O)O)C[C@H]2O[C@@H](n3cnc4c(N)ncnc43)[C@H](O)[C@@H]2O)c1 [Compound 2a]
- cell permeability (MS detection of cellular levels) (HCT116): limited permeability

Molecule: NC(=O)c1cccc(CCN(CC[C@H](N)C(=O)O)C[C@H]2O[C@@H](n3cnc4c(N)ncnc43)[C@H](O)[C@@H]2O)c1 [MS2756]
- activity of previously reported bisubstrate analogs (NNMT [3]): moderate activities at μM range

- loss of activity compared to 2a (NNMT [1]): comparable activity
Molecule: Cc1ccc(C#CCN(CC[C@H](N)C(=O)O)C[C@H]2O[C@@H](n3cnc4c(N)ncnc43)[C@H](O)[C@@H]2O)cc1C(N)=O [Compound 2c, (S)-2-amino-4-((((2R,3S,4R,5R)-5-(6-amino-9H-purin-9-yl)-3,4-dihydroxytetrahydrofuran-2-yl)methyl)(3-(3-carbamoyl-4-methylphenyl)prop-2-yn-1-yl)amino)butanoic acid]

- decrease of inhibitory activity compared with 1a (NNMT [1]): about 700 fold
Molecule: COC(=O)c1cccc(CCCN(CC[C@H](N)C(=O)O)C[C@H]2O[C@@H](n3cnc4c(N)ncnc43)[C@H](O)[C@@H]2O)c1 [Compound 1j, (S)-2-amino-4-((((2R,3S,4R,5R)-5-(6-amino-9H-purin-9-yl)-3,4-dihydroxytetrahydrofuran-2-yl)methyl)(3-(3-(methoxycarbonyl)phenyl)propyl)amino)butanoic acid]

- loss of activity compared to 2a (NNMT [1]): ~500 fold
Molecule: NC(=O)c1cccc(C#CCNC[C@H]2O[C@@H](n3cnc4c(N)ncnc43)[C@H](O)[C@@H]2O)c1 [Compound 2d, 3-(3-((((2R,3S,4R,5R)-5-(6-amino-9H-purin-9-yl)-3,4-dihydroxytetrahydrofuran-2-yl)methyl)amino)prop-1-yn-1-yl)benzamide]

- decrease of inhibitory activity compared with 1a (NNMT [1]): more than 3 fold
Molecule: Cc1ccc(C(N)=O)cc1CCCN(CC[C@H](N)C(=O)O)C[C@H]1O[C@@H](n2cnc3c(N)ncnc32)[C@H](O)[C@@H]1O [Compound 1b, (S)-2-amino-4-((((2R,3S,4R,5R)-5-(6-amino-9H-purin-9-yl)-3,4dihydroxytetrahydrofuran-2-yl)methyl)(3-(5-carbamoyl-2methylphenyl)propyl)amino)butanoic acid]

- decrease of inhibitory activity compared with 1a (NNMT [1]): 70 fold
Molecule: NC(=O)c1cccc(CCCN(CCC[C@H](N)C(=O)O)C[C@H]2O[C@@H](n3cnc4c(N)ncnc43)[C@H](O)[C@@H]2O)c1 [Compound 1d, (S)-2-amino-5-((((2R,3S,4R,5R)-5-(6-amino-9H-purin-9-yl)-3,4-dihydroxytetrahydrofuran-2-yl)methyl)(3-(3-arbamoylphenyl)propyl)amino)pentanoic acid]

Molecule: NC(=O)c1cccc(C#C[C@@H](CC[C@H](N)C(=O)O)C[C@H]2O[C@@H](n3cnc4c(N)ncnc43)[C@H](O)[C@@H]2O)c1 [NS1]
- Ki (NNMT [4]): ~0.0005 µM

- loss of activity compared to 2a (NNMT [1]): 7 fold
Molecule: COc1ccc(C(N)=O)cc1C#CCN(CC[C@H](N)C(=O)O)C[C@H]1O[C@@H](n2cnc3c(N)ncnc32)[C@H](O)[C@@H]1O [Compound 2b, (S)-2-amino-4-((((2R,3S,4R,5R)-5-(6-amino-9H-purin-9-yl)-3,4-dihydroxytetrahydrofuran-2-yl)methyl)(3-(5-carbamoyl-2-methoxyphenyl)prop-2-yn-1-yl)amino)butanoic acid]

B1: NNMT (Homo sapiens) (protein)
chain: T1 sequence (P40261 1-264)
- Km (SAH hydrolase): 10 µM
- Km [5]: 10 µM
